14 molecules from patent US8008492B2, “Compounds that act as a vehicle for delivery through the blood-brain barrier and charge delivery vehicle constructions” (priority 2006, dated 2011) can be followed below.

Data set [1] is described as follows: Immobilized artificial membrane chromatography (IAMC). Type of data set: physicochemical. The settings on record: isocratic, phosphate buffer pH 7.4 and 20% MeCN. An excerpt: To evaluate the BBB-shuttles and BBB-shuttle-cargo constructs, a chromatographic technique, IAMC (immobilized artificial membrane chromatography) developed by Pidgeon was used (cf. A. Albert, Chemical aspects of selective toxicity. Nature 1958, vol. 182, pp. 421-423). This technique uses phospholipid molecules covalently immobilized to silica particles at high density as the stationary phase. It has been used to purify membrane proteins, to immobilize enzymes and to predict transport across biological barriers. […] IAMC interactions include ionic, lipophilic and hydrogen bonding interactions that can be combined under a parameter known as phospholipophilicity. […] The compounds were detected by UV absorption at 220 nm. […] The retention times (tr) were transformed into capacity factors (kIAM) according to the following equation: kIAM=(tr−t0)/t0, where tr is the retention time of the studied compound and t0 is the retention time of a compound that would not be retained by the column (e.g. citric acid). As a control, propranolol was studied. BBB-shuttles and the BBB-shuttle-cargo constructs were also evaluated by IAMC (Immobilized Artificial Membrane Chromatography), a chromatographic technique that measures the phospholipophilicity of our compounds, their tendency to interact with phosphatidylcholine covalently immobilized. See results in Table 6 and 7.

A short description of data set [2]: Parallel artificial membrane permeability assay (PAMPA). Type of data set: in vitro ADME, porcine. To be noted: 200 μM initial, pH 7.4, 4 hours, room temperature; for Effective permeability Pe: triplicate. From the text: Parallel artificial membrane permeability assay (PAM PA). The evaluation method chosen is the Parallel Artificial Membrane Permeability Assay (PAMPA), which allows to predict or evaluate only this transport mechanism. In general terms, this method is simple, automatizable with high throughput, has a low cost and require only a small amount of test compound. The PAMPA method originally introduced by Kansy at Roche uses an artificial membrane in the form of filter supported phospholipids bilayers ([…] al., “Physicochemical high throughput screening: Parallel artificial membrane permeability assay in the description of the absorption processes” J. Med. Chem. 1998, vol. 41, pp. 1007-1010). The phospholipid membrane mimics the cell membrane, but has no means for active or paracellular transport of drug molecules. It is a very convenient tool to evaluate the transport of compounds by passive diffusion. This technique allows the evaluation of pure compounds, crudes or even mixtures of compounds. PAMPA assay is used to determine the ability of the BBB shuttle-cargo constructs to cross the BBB by passive diffusion. […] The compound of interest was dissolved to the desired concentration (200 μM). The PAMPA sandwich was separated and the donor well was filled with 200 μL of the compound solution to be studied. The acceptor plate was placed into the donor plate making sure that the underside of membrane was in contact with buffer. 4 μL of mixture of phospholipids (20 mg/mL) in dodecane were added into each well and 200 μL of buffer solution were added to the each acceptor well. The plate was covered and incubated at room temperature in a saturated humidity atmosphere for 4 hours under orbital agitation at 100 rpm. […] The transport was also confirmed by MALDI-TOF spectrometry and HPLC-MS of aliquotes of the acceptor wells. The mixture of phospholipids used is a porcine polar brain lipid extract. […] The effective permeability was calculated using the following equation: [formula] where: • t time (hours) • CA(t) Compound concentration at the acceptor well at time t • CD(t0) Compound concentration at the donor well at 0 h As a control, the transport of propranolol was evaluated in parallel and a mass balance was calculated for all the studied compounds in order to detect if retention in the phospholipids occur. The different compounds were evaluated by PAMPA assay.
(The PAMPA barrier holds no transporters, so it reflects passive diffusion.)

Turning to `O=C(O)[C@H]1O[C@@H](Oc2cc3oc(-c4ccccc4)cc(=O)c3c(O)c2O)[C@H](O)[C@@H](O)[C@@H]1O` [Baicalin, baicalin, reference compound], the “Capacity factor kIAM” value in data set [1] (baicalin constructs) is 1.24.
For the molecule `CN1C(=O)C(Cc2ccc(NC(=O)C3OC(Oc4cc5oc(-c6ccccc6)cc(=O)c5c(O)c4O)C(O)C(O)C3O)cc2)NC(=O)C1Cc1ccccc1` (centres unmarked) [Compound 5a, DKP Phe(p-NH—CO-baicalin)-N-MePhe], in data set [2] (baicalin constructs), the “Log Pe” value was −7.7 and the “Effective permeability Pe” value is listed as 1.33 10^−8 cm/s. In addition, in data set [1] (baicalin constructs), the “Capacity factor kIAM” value was determined as 2.42.
Regarding `CN1C(=O)C(Cc2ccc(NC(=O)C3OC(Oc4cc5oc(-c6ccccc6)cc(=O)c5c(O)c4O)C(O)C(O)C3O)cc2)NC(=O)C1CC1CCCCC1` (centres unmarked) [Compound 5b, DKP Phe(p-NH—CO-baicalin)-N-MeCha], in data set [2] (baicalin constructs), the “Log Pe” value is −6.4 and the “Effective permeability Pe” value is reported as 3.65 10^−7 cm/s. Further, the “Capacity factor kIAM” value in data set [1] (baicalin constructs) amounted to 6.09.
For `CN1C(=O)C(Cc2ccc(NC(=O)C3OC(Oc4cc5oc(-c6ccccc6)cc(=O)c5c(O)c4O)C(O)C(O)C3O)cc2)NC(=O)C1Cc1ccc2ccccc2c1` (centres unmarked) [Compound 5c, DKP Phe(p-NH—CO-baicalin)-N-Me2Nal], in data set [2] (baicalin constructs), the “Log Pe” value is −5.4 and the “Effective permeability Pe” value is 3.70 10^−6 cm/s. The “Capacity factor kIAM” value in data set [1] (baicalin constructs) worked out at 10.66.
On the same counts, the results for `CN1C(=O)C(Cc2ccc(NC(=O)C3OC(Oc4cc5oc(-c6ccccc6)cc(=O)c5c(O)c4O)C(O)C(O)C3O)cc2)NC(=O)C1Cc1ccc2ccc3cccc4ccc1c2c34` (centres unmarked) [Compound 5d, DKP Phe(p-NH—CO-baicalin)-N-Me1PyrenylAla] are −8.7, 0.19 10^−8 cm/s and greater than 100.
On the same counts, the results for `CN1C(=O)C(Cc2ccc(NC(=O)C3OC(Oc4cc5oc(-c6ccccc6)cc(=O)c5c(O)c4O)C(O)C(O)C3O)cc2)NC(=O)C1CCc1ccccc1` (centres unmarked) [Compound 5e, DKP Phe(p-NH—CO-baicalin)-N-MeHomoPhe] are −9.3, 0.05 10^−8 cm/s and 4.15.
As to `CCCCCCC1C(=O)NC(Cc2ccc(NC(=O)C3OC(Oc4cc5oc(-c6ccccc6)cc(=O)c5c(O)c4O)C(O)C(O)C3O)cc2)C(=O)N1C` (centres unmarked) [Compound 5f, DKP Phe(p-NH—CO-baicalin)-N-MeOct], in data set [2] (baicalin constructs), the “Log Pe” value is reported as −6.3 and the “Effective permeability Pe” value is given as 4.97 10^−7 cm/s. Besides, in data set [1] (baicalin constructs), the “Capacity factor kIAM” value worked out at 10.47.
As to `CN1C(=O)C(Cc2ccc(NCC(=O)NCCc3ccc(O)c(O)c3)cc2)NC(=O)C1Cc1ccccc1` (centres unmarked) [Compound 6a, DKP Phe(p-NH—CH2—CO—NH-dopamine)-N-MePhe], in data set [2] (dopamine constructs), the “Log Pe” value was −7.4 and the “Effective permeability Pe” value is 3.61 10^−8 cm/s. The “Capacity factor kIAM” value in data set [1] (dopamine constructs) was 3.54.
On the same counts, the results for `CN1C(=O)C(Cc2ccc(NCC(=O)NCCc3ccc(O)c(O)c3)cc2)NC(=O)C1CC1CCCCC1` (centres unmarked) [Compound 6b, DKP Phe(p-NH—CH2—CO—NH-dopamine)-N-MeCha] are −7.6, 2.28 10^−8 cm/s and 0.86.
With `CN1C(=O)C(Cc2ccc(NCC(=O)NCCc3ccc(O)c(O)c3)cc2)NC(=O)C1Cc1ccc2ccccc2c1` (centres unmarked) [Compound 6c, DKP Phe(p-NH—CH2—CO—NH-dopamine)-N-Me2Nal], in data set [2] (dopamine constructs), the “Log Pe” value was −6.9 and the “Effective permeability Pe” value is given as 11.5 10^−8 cm/s. For the same molecule, in data set [1] (dopamine constructs), the “Capacity factor kIAM” value amounted to 16.14.
`CN1C(=O)C(Cc2ccc(NCC(=O)NCCc3ccc(O)c(O)c3)cc2)NC(=O)C1Cc1ccc2ccc3cccc4ccc1c2c34` (centres unmarked) [Compound 6d, DKP Phe(p-NH—CH2—CO—NH-dopamine)-N-Me(1PyrenylAla)]: in data set [2] (dopamine constructs), the “Log Pe” value is recorded as −7.7 and the “Effective permeability Pe” value is recorded as 1.90 10^−8 cm/s. Also, the “Capacity factor kIAM” value in data set [1] (dopamine constructs) is on record as greater than 100.
With `CN1C(=O)C(Cc2ccc(NCC(=O)NCCc3ccc(O)c(O)c3)cc2)NC(=O)C1CCc1ccccc1` (centres unmarked) [Compound 6e, DKP Phe(p-NH—CH2—CO—NH-dopamine)-N-MeHomoPhe], in data set [2] (dopamine constructs), the “Log Pe” value is given as −8.1 and the “Effective permeability Pe” value was 0.76 10^−8 cm/s. Further, the “Capacity factor kIAM” value in data set [1] (dopamine constructs) stood at 3.15.
The like results for `CCCCCCC1C(=O)NC(Cc2ccc(NCC(=O)NCCc3ccc(O)c(O)c3)cc2)C(=O)N1C` (centres unmarked) [Compound 6f, DKP Phe(p-NH—CH2—CO—NH-dopamine)-N-MeOct] were, in that order, −6.5, 32.1 10^−8 cm/s and 15.47.
For `NCCc1ccc(O)c(O)c1` [Dopamine, dopamine, reference compound], in data set [1] (dopamine constructs), the “Capacity factor kIAM” value was 0.30.
